Tested on: K-562 leukemia growth, % test/control
Assay: Anticancer human tumor K-562 cell line growth inhibition;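 on viability, T/C: 100% = DMSO vehicle wells and lower values mean fewer viable cells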
Conditions: spheroids with HUVEC and MSC; for IC50: curve of first compound; for viability, T/C: stronger effect = lower value
Method in brief: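 Complex spheroids of tumor cells with HUVEC and human MSCs, exposed to iadademstat combined with other agents. Each agent tested in half-log steps from near clinical Cmax (else 10 microM top), DMSO ≤0.25%.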

[1] = second compound 0.1 µM, first compound 0.00316 µM
[2] = second compound 0.1 µM, first compound 0.01 µM
[3] = second compound 0.1 µM, first compound 0.0316 µM
[4] = second compound 0.1 µM, first compound 0.1 µM
[5] = second compound 0.316 µM, first compound 0.00316 µM
[6] = second compound 0.316 µM, first compound 0.01 µM
[7] = second compound 0.316 µM, first compound 0.0316 µM
[8] = second compound 0.316 µM, first compound 0.1 µM
[9] = second compound 1 µM, first compound 0.00316 µM
[10] = second compound 1 µM, first compound 0.01 µM
[11] = second compound 1 µM, first compound 0.0316 µM
[12] = second compound 1 µM, first compound 0.1 µM
[13] = second compound 3.16 µM, first compound 0.00316 µM
[14] = second compound 3.16 µM, first compound 0.01 µM
[15] = second compound 3.16 µM, first compound 0.0316 µM
[16] = second compound 3.16 µM, first compound 0.1 µM
[17] = second compound 10 µM, first compound 0.00316 µM
[18] = second compound 10 µM, first compound 0.01 µM
[19] = second compound 10 µM, first compound 0.0316 µM
[20] = second compound 10 µM, first compound 0.1 µM
[21] = second compound 0.1 µM, first compound 0.00949 µM
[22] = second compound 0.1 µM, first compound 0.03 µM
[23] = second compound 0.1 µM, first compound 0.0949 µM
[24] = second compound 0.1 µM, first compound 0.3 µM
[25] = second compound 0.1 µM, first compound 0.949 µM
[26] = second compound 0.1 µM, first compound 3 µM
[27] = second compound 0.316 µM, first compound 0.00949 µM
[28] = second compound 0.316 µM, first compound 0.03 µM
[29] = second compound 0.316 µM, first compound 0.0949 µM
[30] = second compound 0.316 µM, first compound 0.3 µM
[31] = second compound 0.316 µM, first compound 0.949 µM
[32] = second compound 0.316 µM, first compound 3 µM
[33] = second compound 1 µM, first compound 0.00949 µM
[34] = second compound 1 µM, first compound 0.03 µM
[35] = second compound 1 µM, first compound 0.0949 µM
[36] = second compound 1 µM, first compound 0.3 µM
[37] = second compound 1 µM, first compound 0.949 µM
[38] = second compound 1 µM, first compound 3 µM
[39] = second compound 3.16 µM, first compound 0.00949 µM
[40] = second compound 3.16 µM, first compound 0.03 µM
[41] = second compound 3.16 µM, first compound 0.0949 µM
[42] = second compound 3.16 µM, first compound 0.3 µM
[43] = second compound 3.16 µM, first compound 0.949 µM
[44] = second compound 3.16 µM, first compound 3 µM
[45] = second compound 10 µM, first compound 0.00949 µM
[46] = second compound 10 µM, first compound 0.03 µM
[47] = second compound 10 µM, first compound 0.0949 µM
[48] = second compound 10 µM, first compound 0.3 µM
[49] = second compound 10 µM, first compound 0.949 µM
[50] = second compound 10 µM, first compound 3 µM

CC(C)CC(NC(=O)CNC(=O)c1cc(Cl)ccc1Cl)B1OC(=O)CC(CC(=O)O)(C(=O)O)O1 (stereo not given) + NC1CCC(NC2CC2c2ccccc2)CC1
IC50 (second compound 0.1 µM): 12.9 nM
IC50 (second compound 0.316 µM): 12.8 nM
IC50 (second compound 1 µM): 13.1 nM
IC50 (second compound 3.16 µM): 13.4 nM
IC50 (second compound 10 µM): 11.7 nM
viability, T/C (second compound 0.1 µM, first compound 0.000316 µM): 102%
viability, T/C (second compound 0.1 µM, first compound 0.001 µM): 96.6%
viability, T/C [1]: 100%
viability, T/C [2]: 59.5%
viability, T/C [3]: 15.6%
viability, T/C [4]: 6.56%
viability, T/C (second compound 0.316 µM, first compound 0.000316 µM): 99.6%
viability, T/C (second compound 0.316 µM, first compound 0.001 µM): 102%
viability, T/C [5]: 102%
viability, T/C [6]: 58.7%
viability, T/C [7]: 16.7%
viability, T/C [8]: 6.02%
viability, T/C (second compound 1 µM, first compound 0.000316 µM): 104%
viability, T/C (second compound 1 µM, first compound 0.001 µM): 102%
viability, T/C [9]: 102%
viability, T/C [10]: 61.5%
viability, T/C [11]: 12.8%
viability, T/C [12]: 6.77%
viability, T/C (second compound 3.16 µM, first compound 0.000316 µM): 103%
viability, T/C (second compound 3.16 µM, first compound 0.001 µM): 98.1%
viability, T/C [13]: 103%
viability, T/C [14]: 60.6%
viability, T/C [15]: 16.9%
viability, T/C [16]: 5.71%
viability, T/C (second compound 10 µM, first compound 0.000316 µM): 97.9%
viability, T/C (second compound 10 µM, first compound 0.001 µM): 99.5%
viability, T/C [17]: 96.5%
viability, T/C [18]: 54.2%
viability, T/C [19]: 16.9%
viability, T/C [20]: 4.71%

COc1cc(Nc2ncc3c(n2)-c2ccc(Cl)cc2C(c2c(F)cccc2OC)=NC3)ccc1C(=O)O + NC1CCC(NC2CC2c2ccccc2)CC1
IC50 (second compound 0.1 µM): 3.23 nM
IC50 (second compound 0.316 µM): 3.86 nM
IC50 (second compound 1 µM): 3.25 nM
IC50 (second compound 3.16 µM): 3.29 nM
IC50 (second compound 10 µM): < 3.16 nM
viability, T/C [1]: 51%
viability, T/C [2]: 21.1%
viability, T/C [3]: 20.4%
viability, T/C [4]: 17.8%
viability, T/C (second compound 0.1 µM, first compound 0.316 µM): 14.6%
viability, T/C (second compound 0.1 µM, first compound 1 µM): 10.7%
viability, T/C [5]: 55.8%
viability, T/C [6]: 22.6%
viability, T/C [7]: 22%
viability, T/C [8]: 19.3%
viability, T/C (second compound 0.316 µM, first compound 0.316 µM): 13.9%
viability, T/C (second compound 0.316 µM, first compound 1 µM): 11.1%
viability, T/C [9]: 51.4%
viability, T/C [10]: 21%
viability, T/C [11]: 23.4%
viability, T/C [12]: 16.7%
viability, T/C (second compound 1 µM, first compound 0.316 µM): 13.1%
viability, T/C (second compound 1 µM, first compound 1 µM): 12.1%
viability, T/C [13]: 51.1%
viability, T/C [14]: 21.3%
viability, T/C [15]: 23.7%
viability, T/C [16]: 21.4%
viability, T/C (second compound 3.16 µM, first compound 0.316 µM): 18.5%
viability, T/C (second compound 3.16 µM, first compound 1 µM): 12.1%
viability, T/C [17]: 46.5%
viability, T/C [18]: 22.1%
viability, T/C [19]: 25.6%
viability, T/C [20]: 24.6%
viability, T/C (second compound 10 µM, first compound 0.316 µM): 19.9%
viability, T/C (second compound 10 µM, first compound 1 µM): 12.6%

NS(=O)(=O)OCC1CC(n2ccc3c(NC4CCc5ccccc54)ncnc32)CC1O (stereo not given) + NC1CCC(NC2CC2c2ccccc2)CC1
IC50 (second compound 0.1 µM): 17.1 nM
IC50 (second compound 0.316 µM): 17 nM
IC50 (second compound 1 µM): 14.9 nM
IC50 (second compound 3.16 µM): 10.9 nM
IC50 (second compound 10 µM): < 9.49 nM
viability, T/C [21]: 58.9%
viability, T/C [22]: 36%
viability, T/C [23]: 40.5%
viability, T/C [24]: 27.8%
viability, T/C [25]: 15.8%
viability, T/C [26]: 8.88%
viability, T/C [27]: 58.9%
viability, T/C [28]: 36.4%
viability, T/C [29]: 40%
viability, T/C [30]: 21.4%
viability, T/C [31]: 13.9%
viability, T/C [32]: 9.49%
viability, T/C [33]: 56.7%
viability, T/C [34]: 36.8%
viability, T/C [35]: 37%
viability, T/C [36]: 24.7%
viability, T/C [37]: 11.8%
viability, T/C [38]: 8.79%
viability, T/C [39]: 53.5%
viability, T/C [40]: 33.4%
viability, T/C [41]: 33.1%
viability, T/C [42]: 18.8%
viability, T/C [43]: 8.53%
viability, T/C [44]: 5.87%
viability, T/C [45]: 42%
viability, T/C [46]: 22.7%
viability, T/C [47]: 17.9%
viability, T/C [48]: 8.46%
viability, T/C [49]: 3.21%
viability, T/C [50]: 1.65%

O=C(C=Cc1cccc(S(=O)(=O)Nc2ccccc2)c1)NO + NC1CCC(NC2CC2c2ccccc2)CC1
IC50 (second compound 0.1 µM): 417 nM
IC50 (second compound 0.316 µM): 421 nM
IC50 (second compound 1 µM): 430 nM
IC50 (second compound 3.16 µM): 325 nM
IC50 (second compound 10 µM): 136 nM
viability, T/C [21]: 103%
viability, T/C [22]: 105%
viability, T/C [23]: 106%
viability, T/C [24]: 69.5%
viability, T/C [25]: 1.52%
viability, T/C [26]: 0.12%
viability, T/C [27]: 106%
viability, T/C [28]: 107%
viability, T/C [29]: 108%
viability, T/C [30]: 70.2%
viability, T/C [31]: 1.56%
viability, T/C [32]: 0.11%
viability, T/C [33]: 106%
viability, T/C [34]: 107%
viability, T/C [35]: 105%
viability, T/C [36]: 72%
viability, T/C [37]: 1.58%
viability, T/C [38]: 0.93%
viability, T/C [39]: 101%
viability, T/C [40]: 99.8%
viability, T/C [41]: 97.4%
viability, T/C [42]: 53.7%
viability, T/C [43]: 1.85%
viability, T/C [44]: 0.87%
viability, T/C [45]: 65.4%
viability, T/C [46]: 59.1%
viability, T/C [47]: 61.2%
viability, T/C [48]: 25.9%
viability, T/C [49]: 1.37%
viability, T/C [50]: 0.45%

Reference: PubChem BioAssay AID1918948 (Molecular Pharmacology Branch, DTP, NCI, 2023)
